Results as given in patent US20160243096A1, “METHODS OF TREATING ORTH[…]” (Emergent Virology LLC, priority 2009, published 2016).

What was measured:
[1] = tested on: INFV A H1N1 (strain A/Texas); assay: Second influenza in vivo study: survival after H1/N1 (Texas) virus challenge; design: species or system Balb/c mice; conditions: 100 mg/kg TID oral for 10 days, ~1 LD90
Procedure: UV-4 was administered to the treated mice as a free drug dissolved in acidic water by the oral route (intragastric via oral gavage—IG) 100 mg/kg, TID for 10 days. The control mice received water orally, TID, instead of UV-4. Balb/c mice were used both for the treated mice and the control mice. Each mouse was microchipped for individual identity.
Mice were infected with INFV A H1N1 (strain A/Texas) intranasally with ˜1 LD90.
Animals were monitored for 15 days. Animals were weighed once per day, and given health scores 2× per day. Animals displaying severe illness (as determined by 30% weight loss, extreme lethargy, ruffled coat, or paralysis) were euthanized. The endpoint was considered a death of the animal or a more than 30% weight loss.
The studied mice include the following groups (10 mice per group):
1) 1 hr pre-treatment. These mice received their first UV-4 dose 1 hr before being infected with INFV A H1N1 (strain A/Texas).
2) 24 hr post-treatment. These mice received their first UV-4 dose 24 hr after being infected with INFV A H1N1 (strain A/Texas).
3) 48 hr post treatment. These mice received their first UV-4 48 hr after being infected with INFV A H1N1 (strain A/Texas).
4) 96 hr post treatment. These mice received their first UV-4 96 hr after being infected with INFV A H1N1 (strain A/Texas).

[2] = tested on: Influenza A virus H3N2 (Hong Kong); assay: Inhibition of infectivity / virus yield reduction in MDCK cells; format: cell-based; conditions: virus yield reduced by 1 log10, 3 days
Procedure: Table provides data for inhibition of infectivity of Influenza A virus H3N2 (Hong Kong) for NB-DNJ (UV-1), NN-DNJ (UV-2), N7-O-DNJ (UV-3), N9-DNJ (UV-4) and NAP-DNJ (UV-5).
Procedure. The compounds were screened for inhibition of generation of infectious virus was conducted on the UV compounds at concentrations up to 500 μM. The influenza virus, Influenza A H3N2, Brisbane/10/2007 strain was evaluated for virus inhibition. MDCK cells (Madin Darby canine kidney cell line) obtained from American Type Culture Collection (ATCC, Manassas, Va.). Cells were cultured in U1traMDCK, supplemented with 2 mM L-glutamine, 1 μg/ml TPCK-treated trypsin and 100 U/ml penicillin, 100 μg/ml streptomycin in cell culture treated 24-well flat bottom plates at 37° C. in a 5% CO2 incubator for 24 hr or until 80% confluent prior to assay. Cells were pretreated with compounds in a final concentration of 0.5% DMSO for 1 hr followed by addition of virus inoculums. Three wells per virus are saved for a virus-only control. Only medium is added in exchange for compound in these wells, and virus is added after the initial 1 hr incubation. Three days later virus containing supernatants were collected and effect on reduction of virus yield are tested by assaying frozen and thawed eluates from each well for virus titer by serial dilution onto monolayers of MDCK susceptible cells.

[3] = Iminosugar safety study in mice; format: in vivo, BALB/c and C57/B1/6 mice; conditions: for weight loss compared to vehicle only control: BALB/c and C57/B1/6 mice, oral 100 and 10 mg/kg twice a day for 7 days; for clinical signs: highest concentration (100 mg/kg twice a day, 7 days)
Procedure: Methods and Discussion: BALB/c and C57/B1/6 mice were given oral suspensions of UV-1, UV-4, UV-5, twice a day for seven days, in 100 ul per mouse at 100 and 10 mg/kg (2 mg and 0.2 mg/mouse, respectively) 8 hours apart for 7 days, and then monitored for weight loss and general health. […] The results of these experiments are in FIG. 6.

[4] = tested on: INFV A H1N1 (strain A/Texas); assay: Influenza in vivo study: survival of infected mice; design: species or system Balb/c mice; conditions: ~5 LD50 intranasal, monitored 15 days
Procedure: UV-4 was administered as a free drug dissolved in acidic water. The compound was given at 100 mg/kg and 10 mg/kg by the oral route (intragastric via oral gavage—IG) twice daily. Balb/c mice received the compound for 10 days. Mice were infected with INFV A H1N1 (strain A/Texas) intranasally with ˜5 LD50 30 minutes following the first iminosugar dose.
Animals were monitored for 15 days. Animals were weighed once per day, and given health scores 2X per day. Animals displaying severe illness (as determined by 30% weight loss, extreme lethargy, ruffled coat, or paralysis) were euthanized.

| SMILES | IC90 [2] [nM] | weight loss compared to vehicle only control [3] | further results |
| --- | --- | --- | --- |
| COCCCCCCCCCN1C[C@H](O)[C@@H](O)[C@H](O)[C@H]1CO [UV-4, N-(9-Methoxynonyl)deoxynojirimycin] | 200 | did not show any significant signs of weight loss | survival ([1]; first dose 1 hr before infection): 100%; survival ([1]; first dose 24 hr after infection): 100%; survival ([1]; first dose 48 hr after infection): 90%; survival ([1]; first dose 96 hr after infection): 90%; survival rate ([4]; 10 mg/kg BID oral gavage for 10 days): 90%; survival rate ([4]; 100 mg/kg BID oral gavage for 10 days): 90% |
| [N-]=[N+]=Nc1ccc(NCCCCCCN2C[C@H](O)[C@@H](O)[C@H](O)[C@H]2CO)c([N+](=O)[O-])c1 [UV-5, N-(N-{4′-azido-2′-nitrophenyl}-6-aminohexyl)deoxynojirimycin] | 200 | did not show any significant signs of weight loss | clinical signs ([3]; BALB/c mice): signs of diarrhea, red urine, and a ruffled appearance; clinical signs ([3]; C57/B1/6 mice): these same symptoms but without the ruffled look |
| CCCCN1C[C@H](O)[C@@H](O)[C@H](O)[C@H]1CO [UV-1, N-Butyl deoxynojirimycin] | 20000 | did not show any significant signs of weight loss | – |
| CCCCCCCCCN1C[C@H](O)[C@@H](O)[C@H](O)[C@H]1CO [UV-2, N-Nonyl deoxynojirimycin] | 200 | – | – |
| CCCOCCCCCCN1C[C@H](O)[C@@H](O)[C@H](O)[C@H]1CO [UV-3, N-(7-Oxadecyl)deoxynojirimycin] | 200 | – | – |
